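Protocol summary: plate cells (96-well), add compound at 5 concentrations, incubate 48 h, interpolate endpoints linearly. GI50: concentration for 50% inhibition of growth.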 Calls of active or inactive are those of the source. Cut-off read from the data, not from the text of the source: active = GI50 up to about 1.1 µM and inactive = higher.
Key:
Assay in all cases: NCI-60 cell line screen, 48 h
SF-268 = test system: SF-268
RPMI-8226 = test system: RPMI-8226
MOLT-4 = test system: MOLT-4
Malme-3M = test system: Malme-3M
HCC 2998 = test system: HCC 2998
OVCAR-3 = test system: OVCAR-3
COLO 205 = test system: COLO 205
UACC-257 = test system: UACC-257
HOP-62 = test system: HOP-62
M19-MEL = test system: M19-MEL
IGROV-1 = test system: IGROV-1
SK-MEL-5 = test system: SK-MEL-5
OVCAR-4 = test system: OVCAR-4
NCI-H226 = test system: NCI-H226
KM12 = test system: KM12
HT-29 = test system: HT-29
HCT-116 = test system: HCT-116
SN12C = test system: SN12C
DMS-273 = test system: DMS-273
K562 = test system: K562
SNB-19 = test system: SNB-19
CCRF-CEM = test system: CCRF-CEM
LOX IMVI = test system: LOX IMVI
KM-20L2 = test system: KM-20L2
SR = test system: SR
DMS-114 = test system: DMS-114
RXF 393 = test system: RXF 393
HL-60 = test system: HL-60
OVCAR-5 = test system: OVCAR-5
SK-MEL-28 = test system: SK-MEL-28
NCI-H522 = test system: NCI-H522
HCT-15 = test system: HCT-15
NCI-H460 = test system: NCI-H460
EKVX = test system: EKVX
LXFL 529 = test system: LXFL 529
786-0 = test system: 786-0
OVCAR-8 = test system: OVCAR-8
TK-10 = test system: TK-10
SW-620 = test system: SW-620
U-251 = test system: U-251
ACHN = test system: ACHN
UO-31 = test system: UO-31
SNB-78 = test system: SNB-78
XF498 = test system: XF498
A498 = test system: A498
A549 = test system: A549
DLD-1 = test system: DLD-1
NCI-H23 = test system: NCI-H23
SF-295 = test system: SF-295
M14 = test system: M14
HOP-18 = test system: HOP-18
UACC-62 = test system: UACC-62
SK-OV-3 = test system: SK-OV-3
SNB-75 = test system: SNB-75
CAKI-1 = test system: CAKI-1
SF-539 = test system: SF-539
HOP-92 = test system: HOP-92
SK-MEL-2 = test system: SK-MEL-2

In the case of `Cc1ccc(N2C[N+](c3ccccc3)=NC(c3ccccc3)=N2)cc1`, the GI50 (SF-268) is reported as > 100 µM (inactive), the GI50 (RPMI-8226) is reported as 33 µM (inactive) and the GI50 (MOLT-4) is reported as 21.3 µM (inactive). For the same compound, the GI50 (Malme-3M) was 43.6 µM (inactive), the GI50 (HCC 2998) was 48.3 µM (inactive) and the GI50 (OVCAR-3) was 29.4 µM (inactive). The GI50 (COLO 205) was 31.8 µM (inactive), the GI50 (UACC-257) was 53.2 µM (inactive) and the GI50 (HOP-62) was > 100 µM (inactive). For the same compound, the GI50 (M19-MEL) was 28.9 µM (inactive), the GI50 (IGROV-1) was 48.4 µM (inactive) and the GI50 (SK-MEL-5) was 23.9 µM (inactive). The GI50 (OVCAR-4) was 40.1 µM (inactive), the GI50 (NCI-H226) was 60.8 µM (inactive) and the GI50 (KM12) was 67.6 µM (inactive). The GI50 (HT-29) was 39.3 µM (inactive), the GI50 (HCT-116) was 35.4 µM (inactive) and the GI50 (SN12C) was 62.2 µM (inactive). The GI50 (DMS-273) was 30.3 µM (inactive), the GI50 (K562) was 23.2 µM (inactive) and the GI50 (SNB-19) was 39.2 µM (inactive). The GI50 (CCRF-CEM) was 19.6 µM (inactive), the GI50 (LOX IMVI) was 32.4 µM (inactive) and the GI50 (KM-20L2) was 56.9 µM (inactive). The GI50 (SR) was 36.4 µM (inactive), the GI50 (DMS-114) was 24.4 µM (inactive) and the GI50 (RXF 393) was 80.2 µM (inactive). The GI50 (HL-60) was 33.6 µM (inactive), the GI50 (OVCAR-5) was > 100 µM (inactive) and the GI50 (SK-MEL-28) was 55.7 µM (inactive). The GI50 (NCI-H522) was > 10 µM (inactive), the GI50 (HCT-15) was 48.1 µM and the GI50 (NCI-H460) was 54.1 µM (inactive). For the same compound, the GI50 (EKVX) was 32.4 µM (inactive), the GI50 (LXFL 529) was 24.8 µM (inactive) and the GI50 (786-0) was 68.9 µM (inactive). The GI50 (OVCAR-8) was 48.1 µM (inactive), the GI50 (TK-10) was > 100 µM (inactive) and the GI50 (SW-620) was 51.8 µM (inactive). For the same compound, the GI50 (U-251) was 44.6 µM (inactive), the GI50 (ACHN) was 32.7 µM (inactive) and the GI50 (UO-31) was 35.9 µM (inactive). The GI50 (SNB-78) was > 10 µM (inactive), the GI50 (XF498) was 43.8 µM (inactive) and the GI50 (A498) was 71.9 µM (inactive). For the same compound, the GI50 (A549) was 66.8 µM (inactive), the GI50 (DLD-1) was 54.6 µM (inactive) and the GI50 (NCI-H23) was 38.9 µM (inactive). The GI50 (SF-295) was 61.7 µM (inactive).

`CC(C)=Cc1cc(C(=O)NCCNC(=O)c2cc(C=C(C)C)nc(NC#N)n2)nc(NC#N)n1` was tested, and the GI50 (M14) was > 100 µM (inactive), the GI50 (SF-268) was > 100 µM (inactive) and the GI50 (HOP-18) was > 100 µM (inactive). For the same compound, the GI50 (RPMI-8226) was > 100 µM (inactive), the GI50 (MOLT-4) was > 100 µM (inactive) and the GI50 (Malme-3M) was > 100 µM (inactive). For the same compound, the GI50 (HCC 2998) was > 100 µM (inactive), the GI50 (OVCAR-3) was > 100 µM (inactive) and the GI50 (COLO 205) was > 100 µM (inactive). For the same compound, the GI50 (UACC-62) was > 100 µM (inactive), the GI50 (UACC-257) was > 100 µM (inactive) and the GI50 (HOP-62) was > 100 µM (inactive). For the same compound, the GI50 (M19-MEL) was > 100 µM (inactive), the GI50 (IGROV-1) was > 100 µM (inactive) and the GI50 (SK-OV-3) was > 100 µM (inactive). For the same compound, the GI50 (SNB-75) was > 100 µM (inactive), the GI50 (SK-MEL-5) was > 100 µM (inactive) and the GI50 (OVCAR-4) was > 100 µM (inactive). For the same compound, the GI50 (NCI-H226) was > 100 µM (inactive), the GI50 (KM12) was > 100 µM (inactive) and the GI50 (CAKI-1) was > 100 µM (inactive). The GI50 (HT-29) was > 100 µM (inactive), the GI50 (HCT-116) was > 100 µM (inactive) and the GI50 (SN12C) was > 100 µM (inactive). For the same compound, the GI50 (K562) was > 100 µM (inactive), the GI50 (SNB-19) was > 100 µM (inactive) and the GI50 (CCRF-CEM) was > 100 µM (inactive). For the same compound, the GI50 (LOX IMVI) was > 100 µM (inactive), the GI50 (KM-20L2) was > 100 µM (inactive) and the GI50 (DMS-114) was > 100 µM (inactive). The GI50 (RXF 393) was > 100 µM (inactive), the GI50 (HL-60) was > 100 µM (inactive) and the GI50 (OVCAR-5) was > 100 µM (inactive). For the same compound, the GI50 (SK-MEL-28) was > 100 µM (inactive), the GI50 (NCI-H522) was > 100 µM (inactive) and the GI50 (HCT-15) was over 100 µM. For the same compound, the GI50 (NCI-H460) was > 100 µM (inactive), the GI50 (EKVX) was > 100 µM (inactive) and the GI50 (LXFL 529) was > 100 µM (inactive). For the same compound, the GI50 (786-0) was > 100 µM (inactive), the GI50 (OVCAR-8) was > 100 µM (inactive) and the GI50 (TK-10) was > 100 µM (inactive). The GI50 (SW-620) was > 100 µM (inactive), the GI50 (U-251) was > 100 µM (inactive) and the GI50 (ACHN) was > 100 µM (inactive). The GI50 (UO-31) was > 100 µM (inactive), the GI50 (XF498) was > 100 µM (inactive) and the GI50 (A498) was > 100 µM (inactive). For the same compound, the GI50 (SF-539) was > 100 µM (inactive), the GI50 (A549) was > 100 µM (inactive) and the GI50 (NCI-H23) was > 100 µM (inactive). The GI50 (SF-295) was > 100 µM (inactive) and the GI50 (HOP-92) was > 100 µM (inactive).

With `C[S+]([O-])c1ccc(COP(N)(=O)N(CCCl)CCCl)cc1` (stereo not drawn) the GI50 (M14) was > 100 µM (inactive), the GI50 (SF-268) was > 100 µM (inactive) and the GI50 (RPMI-8226) was > 100 µM (inactive). The GI50 (MOLT-4) was > 100 µM (inactive), the GI50 (Malme-3M) was > 100 µM (inactive) and the GI50 (HCC 2998) was > 100 µM (inactive). The GI50 (OVCAR-3) was > 100 µM (inactive), the GI50 (COLO 205) was > 100 µM (inactive) and the GI50 (UACC-62) was > 100 µM (inactive). The GI50 (UACC-257) was > 100 µM (inactive), the GI50 (HOP-62) was > 100 µM (inactive) and the GI50 (M19-MEL) was > 100 µM (inactive). The GI50 (IGROV-1) was > 100 µM (inactive), the GI50 (SK-OV-3) was > 100 µM (inactive) and the GI50 (SNB-75) was > 100 µM (inactive). For the same compound, the GI50 (SK-MEL-5) was > 100 µM (inactive), the GI50 (OVCAR-4) was > 100 µM (inactive) and the GI50 (NCI-H226) was > 100 µM (inactive). The GI50 (KM12) was > 100 µM (inactive), the GI50 (CAKI-1) was > 100 µM (inactive) and the GI50 (HT-29) was > 100 µM (inactive). The GI50 (SK-MEL-2) was > 100 µM (inactive), the GI50 (HCT-116) was > 100 µM (inactive) and the GI50 (SN12C) was > 100 µM (inactive). The GI50 (DMS-273) was > 100 µM (inactive), the GI50 (K562) was > 100 µM (inactive) and the GI50 (SNB-19) was > 100 µM (inactive). For the same compound, the GI50 (CCRF-CEM) was > 100 µM (inactive), the GI50 (LOX IMVI) was > 100 µM (inactive) and the GI50 (KM-20L2) was > 100 µM (inactive). The GI50 (SR) was > 100 µM (inactive), the GI50 (DMS-114) was > 100 µM (inactive) and the GI50 (RXF 393) was > 100 µM (inactive). For the same compound, the GI50 (HL-60) was > 100 µM (inactive), the GI50 (OVCAR-5) was > 100 µM (inactive) and the GI50 (SK-MEL-28) was > 100 µM (inactive). For the same compound, the GI50 (NCI-H522) was > 100 µM (inactive), the GI50 (NCI-H460) was > 100 µM (inactive) and the GI50 (EKVX) was > 100 µM (inactive). For the same compound, the GI50 (LXFL 529) was > 100 µM (inactive), the GI50 (786-0) was > 100 µM (inactive) and the GI50 (OVCAR-8) was > 100 µM (inactive). For the same compound, the GI50 (TK-10) was > 100 µM (inactive), the GI50 (SW-620) was > 100 µM (inactive) and the GI50 (U-251) was > 100 µM (inactive). For the same compound, the GI50 (ACHN) was > 100 µM (inactive), the GI50 (UO-31) was > 100 µM (inactive) and the GI50 (SNB-78) was > 100 µM (inactive). The GI50 (XF498) was > 100 µM (inactive), the GI50 (A498) was > 100 µM (inactive) and the GI50 (SF-539) was > 100 µM (inactive). The GI50 (A549) was > 100 µM (inactive), the GI50 (DLD-1) was > 100 µM (inactive) and the GI50 (NCI-H23) was > 100 µM (inactive). The GI50 (SF-295) was > 100 µM (inactive) and the GI50 (HOP-92) was > 100 µM (inactive).

— ChEMBL document CHEMBL1201862, “PubChem BioAssay data set” (2004)
